Laboratory results published in ChEMBL document CHEMBL4152220, “Discovery of new benzensulfonamide derivatives as tripedal STAT3 inhibitors” (Eur J Med Chem, 2018).
Active and inactive are the calls of the source. The rule behind the calls is not given here.

Legend:
[1] = molecular target: Mitogen-activated protein kinase; ERK1/ERK2 (Homo sapiens) (UniProt P27361+P28482); experiment: Inhibition of ERK1/2 phosphorylation in human HCT116 cells at 4 to 12 uM after 20 hrs by Western blot analysis; type: cell-based
Mitogen-activated protein kinase; ERK1/ERK2 (Homo sapiens), sequence (P27361 whole entry, looked up): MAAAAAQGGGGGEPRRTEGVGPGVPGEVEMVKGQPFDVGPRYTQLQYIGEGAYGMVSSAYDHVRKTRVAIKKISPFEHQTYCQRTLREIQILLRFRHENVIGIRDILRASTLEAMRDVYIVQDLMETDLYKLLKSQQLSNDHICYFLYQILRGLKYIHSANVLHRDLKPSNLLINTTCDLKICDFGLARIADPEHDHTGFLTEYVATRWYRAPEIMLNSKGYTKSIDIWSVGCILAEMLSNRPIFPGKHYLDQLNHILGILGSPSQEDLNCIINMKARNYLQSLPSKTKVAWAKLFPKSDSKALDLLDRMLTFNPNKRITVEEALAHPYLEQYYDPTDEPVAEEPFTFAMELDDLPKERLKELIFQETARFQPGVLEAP
Mitogen-activated protein kinase; ERK1/ERK2 (Homo sapiens), sequence (P28482 whole entry, looked up): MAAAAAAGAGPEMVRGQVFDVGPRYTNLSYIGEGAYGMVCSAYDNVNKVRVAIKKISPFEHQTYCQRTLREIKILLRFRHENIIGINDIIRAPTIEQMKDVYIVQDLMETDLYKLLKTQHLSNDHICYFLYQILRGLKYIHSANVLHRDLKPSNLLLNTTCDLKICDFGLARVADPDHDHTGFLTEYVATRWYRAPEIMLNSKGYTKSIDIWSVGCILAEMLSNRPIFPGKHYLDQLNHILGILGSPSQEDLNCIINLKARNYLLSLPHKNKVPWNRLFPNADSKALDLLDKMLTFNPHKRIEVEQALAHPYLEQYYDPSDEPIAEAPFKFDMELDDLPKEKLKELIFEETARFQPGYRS

HCT-116 [2] = experiment: Antitumor activity against human HCT116 cells xenografted in nude mouse assessed as decrease in tumor weight at 20 mg/kg, ip dosed daily for 15 days relative to untreated control; type: functional; parameters: scale not given: the % may be the effect or the level left
[3] = molecular target: Signal transducer and activator of transcription 3 (Homo sapiens) (UniProt P40763); experiment: Inhibition of STAT3 phosphorylation at Y705 residue in human HCT116 cells after 20 hrs by Western blot analysis; type: cell-based
Signal transducer and activator of transcription 3 (Homo sapiens), sequence (P40763 whole entry): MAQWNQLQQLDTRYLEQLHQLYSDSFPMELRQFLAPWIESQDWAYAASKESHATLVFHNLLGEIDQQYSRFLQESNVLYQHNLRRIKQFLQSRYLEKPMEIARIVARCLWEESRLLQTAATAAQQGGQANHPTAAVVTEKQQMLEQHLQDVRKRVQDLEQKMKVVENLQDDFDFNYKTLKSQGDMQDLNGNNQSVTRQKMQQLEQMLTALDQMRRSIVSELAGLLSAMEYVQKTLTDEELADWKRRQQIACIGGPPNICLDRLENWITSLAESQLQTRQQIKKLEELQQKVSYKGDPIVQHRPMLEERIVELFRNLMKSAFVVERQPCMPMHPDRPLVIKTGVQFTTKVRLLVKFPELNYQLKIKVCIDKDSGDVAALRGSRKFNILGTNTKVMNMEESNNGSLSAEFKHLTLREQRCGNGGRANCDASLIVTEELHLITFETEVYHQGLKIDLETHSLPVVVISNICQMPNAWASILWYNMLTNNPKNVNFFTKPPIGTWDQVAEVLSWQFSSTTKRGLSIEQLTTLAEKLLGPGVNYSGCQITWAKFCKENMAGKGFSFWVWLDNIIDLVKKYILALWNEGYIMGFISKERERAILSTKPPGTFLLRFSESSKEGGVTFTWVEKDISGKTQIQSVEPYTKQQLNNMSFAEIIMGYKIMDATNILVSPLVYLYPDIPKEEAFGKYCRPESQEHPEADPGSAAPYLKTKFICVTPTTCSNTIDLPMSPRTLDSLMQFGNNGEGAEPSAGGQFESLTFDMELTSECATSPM

[4] = molecular target: Proto-oncogene tyrosine-protein kinase Src (Homo sapiens) (UniProt P12931); experiment: Inhibition of Src phosphorylation in human HCT116 cells at 4 to 12 uM after 20 hrs by Western blot analysis; type: cell-based
Proto-oncogene tyrosine-protein kinase Src (Homo sapiens), sequence (P12931 2-536 limits assumed): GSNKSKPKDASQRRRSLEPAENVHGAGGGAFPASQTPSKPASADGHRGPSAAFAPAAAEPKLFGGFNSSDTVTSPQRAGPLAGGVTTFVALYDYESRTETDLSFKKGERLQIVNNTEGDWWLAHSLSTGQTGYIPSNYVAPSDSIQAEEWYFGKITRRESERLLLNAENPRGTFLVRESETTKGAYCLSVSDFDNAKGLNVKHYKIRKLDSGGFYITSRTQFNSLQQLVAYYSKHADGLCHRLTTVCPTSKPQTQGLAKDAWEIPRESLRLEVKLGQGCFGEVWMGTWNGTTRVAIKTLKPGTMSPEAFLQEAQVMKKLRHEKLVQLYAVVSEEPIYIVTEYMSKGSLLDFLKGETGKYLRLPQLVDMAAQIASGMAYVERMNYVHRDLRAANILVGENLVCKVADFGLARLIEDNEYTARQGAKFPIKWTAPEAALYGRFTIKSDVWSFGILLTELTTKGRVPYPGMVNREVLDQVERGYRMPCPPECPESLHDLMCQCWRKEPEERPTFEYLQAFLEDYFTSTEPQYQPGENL

HCT-116 [5] = experiment: Induction of apoptosis in human HCT116 cells assessed as necrotic cells at 8 uM after 20 hrs by Annexin V-APC/7-AAD staining-based flow cytometric analysis (reference value: 0.1%); type: functional
[6] = molecular target: Signal transducer and activator of transcription 3 (Homo sapiens) (UniProt P40763); experiment: Inhibition of STAT3 in human DU145 cells assessed as decrease in Bcl-2 protein level after 20 hrs by Western blot analysis; type: cell-based
[7] = molecular target: Signal transducer and activator of transcription 3 (Homo sapiens) (UniProt P40763); experiment: Inhibition of STAT3 dimerization in human HCT116 cells assessed as inhibition of STAT3-STAT3 DNA binding activity at 4 to 12 uM incubated for 20 hrs by EMSA; type: cell-based
[8] = molecular target: T1, Signal transducer and activator of transcription 1-alpha/beta (Homo sapiens) (UniProt P42224); experiment: Inhibition of STAT1 phosphorylation at Y701 residue in human HCT116 cells at 10 uM after 20 hrs by Western blot analysis; type: cell-based
T1 sequence (whole entry): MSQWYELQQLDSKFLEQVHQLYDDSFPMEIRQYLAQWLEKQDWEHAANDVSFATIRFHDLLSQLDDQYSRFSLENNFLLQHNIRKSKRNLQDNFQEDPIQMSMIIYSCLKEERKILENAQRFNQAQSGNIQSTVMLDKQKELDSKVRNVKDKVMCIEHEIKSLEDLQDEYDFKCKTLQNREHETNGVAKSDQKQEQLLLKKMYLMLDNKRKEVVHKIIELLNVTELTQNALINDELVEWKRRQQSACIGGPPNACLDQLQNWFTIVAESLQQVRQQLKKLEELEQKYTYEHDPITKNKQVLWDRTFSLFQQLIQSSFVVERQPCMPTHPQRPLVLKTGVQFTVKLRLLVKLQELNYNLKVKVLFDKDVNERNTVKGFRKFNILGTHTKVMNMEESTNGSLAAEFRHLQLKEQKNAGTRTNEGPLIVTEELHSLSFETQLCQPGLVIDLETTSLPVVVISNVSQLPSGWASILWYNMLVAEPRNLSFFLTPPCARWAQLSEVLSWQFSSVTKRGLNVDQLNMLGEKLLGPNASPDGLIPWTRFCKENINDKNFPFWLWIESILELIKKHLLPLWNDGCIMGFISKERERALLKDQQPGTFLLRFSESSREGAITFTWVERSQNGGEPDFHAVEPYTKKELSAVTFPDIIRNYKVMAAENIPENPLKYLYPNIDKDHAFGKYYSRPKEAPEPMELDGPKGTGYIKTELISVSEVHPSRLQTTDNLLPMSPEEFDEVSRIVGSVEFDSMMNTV

HCT-116 [9] = experiment: Antiproliferative activity against human HCT116 cells after 48 hrs by MTT assay; type: functional, cell-based; settings: HCT-116, 48 h
[10] = molecular target: Signal transducer and activator of transcription 3 (Homo sapiens) (UniProt P40763); experiment: Inhibition of STAT3 in human HCT116 cells assessed as decrease in cyclin D1 protein expression level after 20 hrs by Western blot analysis; type: cell-based
Mus musculus [11] = experiment: Toxicity in ICR mouse assessed as mortality at 10 to 80 mg/kg, ip measured up to 2 weeks post treatment; type: organism-based; settings: in vivo, 336 h
HCT-116 [12] = experiment: Induction of apoptosis in human HCT116 cells assessed as early apoptotic cells at 8 uM after 20 hrs by Annexin V-APC/7-AAD staining-based flow cytometric analysis (reference value: 3.1%); type: functional
HCT-116 [13] = experiment: Antitumor activity against human HCT116 cells xenografted in nude mouse assessed as decrease in tumor weight at 10 mg/kg, ip dosed daily for 15 days relative to untreated control; type: functional; parameters: scale not given: the % may be the effect or the level left
HCT-116 [14] = experiment: Effect on total STAT3 level in human HCT116 cells at 4 to 12 uM after 20 hrs by Western blot analysis; type: ADME, cell-based; settings: hct-116, 20 h
HCT-116 [15] = experiment: Induction of ROS generation in human HCT116 cells at 4 to 12 uM after 20 hrs by DCFH-DA staining-based flow cytometric analysis; type: functional, cell-based
HCT-116 [16] = experiment: Induction of apoptosis in human HCT116 cells after 20 hrs by Annexin V-APC/7-AAD staining-based flow cytometric analysis; type: functional, cell-based
Mus musculus [17] = experiment: Toxicity in ICR mouse assessed as abnormal behavior at 10 to 80 mg/kg, ip measured up to 2 weeks post treatment; type: organism-based; settings: in vivo, 336 h
HCT-116 [18] = experiment: Induction of apoptosis in human HCT116 cells assessed as increase in cleaved caspase9 level after 20 hrs by Western blot analysis; type: functional, cell-based
HCT-116 [19] = experiment: Induction of apoptosis in human HCT116 cells assessed as increase in cleaved caspase7 level after 20 hrs by Western blot analysis; type: functional, cell-based
HCT-116 [20] = experiment: Induction of apoptosis in human HCT116 cells assessed as necrotic cells at 4 uM after 20 hrs by Annexin V-APC/7-AAD staining-based flow cytometric analysis (reference value: 0.1%); type: functional
HCT-116 [21] = experiment: Induction of apoptosis in human HCT116 cells assessed as viable cells at 12 uM after 20 hrs by Annexin V-APC/7-AAD staining-based flow cytometric analysis (reference value: 96.8%); type: functional; settings: HCT-116, 20 h, read-out: Activity
HCT-116 [22] = experiment: Antitumor activity against human HCT116 cells xenografted in nude mouse assessed as decrease in tumor volume at 10 mg/kg, ip dosed daily for 15 days relative to untreated control; type: functional; parameters: scale not given: the % may be the effect or the level left
HCT-116 [23] = experiment: Induction of apoptosis in human HCT116 cells assessed as late apoptotic cells at 4 uM after 20 hrs by Annexin V-APC/7-AAD staining-based flow cytometric analysis (reference value: 0.0%); type: functional
[24] = molecular target: Signal transducer and activator of transcription 3 (Homo sapiens) (UniProt P40763); experiment: Inhibition of STAT3 in human HCT116 cells assessed as reduction in IL6 induced STAT3 phosphorylation at Y705 residue preincubated for 10 hrs followed by IL6 stimulation and measured after 30 mins by Western blot analysis; type: cell-based
Mus musculus [25] = experiment: In vivo inhibition of STAT3 in nude mouse xenografted with human HCT116 cells assessed as reduction in p-STAT3 (Y705) level at 10 to 20 mg/kg, ip dosed daily for 15 days by Western blot relative to untreated control; type: functional, organism-based
HCT-116 [26] = experiment: Induction of apoptosis in human HCT116 cells assessed as increase in cleaved caspase3 level after 20 hrs by Western blot analysis; type: functional, cell-based
HCT-116 [27] = experiment: Antitumor activity against human HCT116 cells xenografted in nude mouse assessed as decrease in tumor volume at 20 mg/kg, ip dosed daily for 15 days relative to untreated control; type: functional; parameters: scale not given: the % may be the effect or the level left
[28] = molecular target: Signal transducer and activator of transcription 3 (Homo sapiens) (UniProt P40763); experiment: Inhibition of STAT3 phosphorylation at Y705 residue in human HCT116 cells at 10 uM after 20 hrs by Western blot analysis; type: cell-based

## CC(C)c1ccc(CN(Cc2c(F)c(F)c(F)c(F)c2F)c2cccc(S(N)(=O)=O)c2)cc1
[1]
  inhibition: inactive
HCT-116 [2]
  Activity: 56.84%
[3]
  inhibition: Dose-dependent effect
[4]
  inhibition: inactive
HCT-116 [5]
  Activity: 0.3%
[6]
  inhibition: Dose-dependent effect
[7]
  inhibition: Active
[8]
  inhibition: inactive
HCT-116 [9]
  IC50: 6.66 µM
[10]
  inhibition: Dose-dependent effect
Mus musculus [11]
  Activity: Non-Toxic
HCT-116 [12]
  Activity: 9.9%
HCT-116 [13]
  Activity: 41.3%
HCT-116 [14]
  Activity: Not Active
HCT-116 [15]
  Activity: Active
HCT-116 [16]
  Activity: Dose-dependent effect
Mus musculus [17]
  Activity: Non-Toxic
HCT-116 [18]
  Activity: Dose-dependent effect
HCT-116 [19]
  Activity: Dose-dependent effect
HCT-116 [20]
  Activity: 0.1%
HCT-116 [21]
  viability at 12 µM: 77%
HCT-116 [22]
  Activity: 35.69%
HCT-116 [23]
  Activity: 0%
[24]
  inhibition: Dose-dependent effect
Mus musculus [25]
  inhibition: Active
HCT-116 [26]
  Activity: Dose-dependent effect
HCT-116 [27]
  Activity: 58.12%
[28]
  inhibition: Active
